PMC4280171, “Novel PDE4 Inhibitors Derived from Chinese Medicine Forsythia” (PLoS ONE, 2014)
pIC50: −log10 of the molar value. Read-outs that look alike come from different tables or passages of the source.

Assays:
[1] = test system: PDE4; parameters: method as in PMID 15476679; settings: selective inhibitors of PDE4 isolated from traditional Chinese medicines; cited from earlier work
[2] = test system: murine models of inflammation; settings: parenteral and oral application; for severity of tissue injury: in each of the models
[3] = test system: LPS stimulated RAW264.7 cells; assay: TNF secretion in LPS stimulated RAW264.7 cells (ELISA); assay type: cell-based; settings: Mus musculus, primed with compound 3 h, LPS 1 ng/ml 8 h, read-out: IC50 TNF secretion, RAW 264.7
Procedure: (§1) Figure 4 Tested compounds reduce TNF secretion in LPS stimulated mouse RAW264.7 and human PBMCs. A. 5×10^5 RAW264.7 cells were seeded in 96 wells for 18 h. Cells were primed with compounds at different concentration for 3 h before treated with LPS (1 ng/ml) for additional 8 h. TNF cytokine releases were monitored by ELISA. B. PBMC (0.2 ml at 1×10^5/ml) were primed with compounds at different concentration for 3 h before treated with LPS (1 ng/ml) for additional 8 h. TNF cytokine releases were monitored by ELISA. % of TNF secretion were calculated and graphed. C. Summary of compound IC50. The data represent n = 3–6 experiments. TEXT PRINTED IN THE PICTURE: (C) C6: RAW 264.7: 400nM; PBMC: 90nM | (C) C7: RAW 264.7: 8uM; PBMC: 10uM | (C) C9: RAW 264.7: 100nM; PBMC: 80nM | (C) C13: RAW 264.7: 70nM; PBMC: 25nM
(§2) 5×10^5 RAW264.7 cells were seeded in 96 wells for 18 h. Cells were primed with compounds at different concentration for 3 h before treated with LPS (1 ng/ml) for additional 8 h. TNF cytokine releases were monitored by ELISA. PBMC (0.2 ml at 1×10^5/ml) were primed with compounds at different concentration for 3 h before treated with LPS (1 ng/ml) for additional 8 h. TNF cytokine releases were monitored by ELISA. % of TNF secretion were calculated and graphed.

[4] = test system: LPS stimulated PBMC; assay: TNF secretion in LPS stimulated PBMC (ELISA); assay type: cell-based; settings: Homo sapiens, primed with compound 3 h, LPS 1 ng/ml 8 h
Procedure: as §1, §2

[5] = biological target: PDE4; assay: PDE-Glo phosphodiesterase activity assay, PDE4; assay type: biochemical, human; settings: for pIC50: 10 mU purified PDE4 per reaction, PDE-Glo assay
Procedure: Compounds 1–14 (Fig. 2) were tested in vitro using PDE-glo phosphodiesterase assay (Promega, Madison, WI). Briefly, all the compounds were diluted in DMSO, and the final concentrations in each assay were 100, 10, 1, 0.1, 0.01, 0.001, 0.0001 µM. For the PDE4 activity assay, 10 mU of purified PDE4D (Millipore) was used per reaction. […] PDE4 = 8 µM.
(§3) For the PDE activity assay, all test compounds were diluted in DMSO with final concentrations in each assay of 100, 10, 1, 0.1, 0.01, 0.001, 0.0001 µM. For the PDE4 activity assay, 10 mU of purified PDE4 (Millipore) was used per reaction. Compounds 6, 7, 9 and 13 (blue underline) were further tested in PDE3, 5, 7, 10 activity assays in which 25 mU of purified enzyme was used per reaction. Summary of compound IC50 in lower right corner. TEXT PRINTED IN THE PICTURE: Compound 6: PDE3: >100uM; PDE4: 90nM; PDE5: 80uM; PDE7: >100uM; PDE10: >100uM | Compound 7: PDE3: >100uM; PDE4: 8uM; PDE5: >100uM; PDE7: >100uM; PDE10: >100uM | Compound 9: PDE3: >100uM; PDE4: 60nM; PDE5: >100uM; PDE7: >100uM; PDE10: >100uM | Compound 13: PDE3: >100uM; PDE4: 10nM; PDE5: 90uM; PDE7: >100uM; PDE10: >100uM
(§4) A PDE activity assay was carried out using the PDE-Glo Phosphodiesterase Assay per manufacturer’s instruction (Promega). Briefly, 5 ul of 1X PDE-Glo Reaction buffer containing 10 mU of purified human recombinant PDE4A4 (Millipore) was added to 96 well plate. All test compounds were dissolved in DMSO and a serial dilution (110) of the inhibitors were performed using 1X PDE-Glo Reaction buffer. 7.5 ul of test compounds were added to the PDE enzyme with the final concentrations in each assay of 100, 10, 1, 0.1, 0.01, 0.001, 0.0001 µM, and incubated at room temperature for 10 min. To initiate the PDE reaction, 12.5 ul of 2 µM cAMP was added to each reaction, mixed well and incubate at room temperature for 10 min. The reactions were terminated using 12.5 ul of PDE-Glo Termination Buffer. 12.5 ul of PDE-Glo Detection Solution containing PDE-Glo Detection Buffer and Protein Kinase A was added to each reaction. The reactions were carried at room temperature for 20 min. 50 ul of Kinase-Glo Reagent was then added to each reaction, mixed well, and incubate for 10 minutes at room temperature. The chemical luminescence signals were measured, quantified and graphed. Compounds 6, 7, 9 and 13 were further tested similarly using 25 mU purified PDE3, 5, 7, 10 (Millipore) enzyme.

[6] = test system: C57/BL6 mice given LPS (E. coli, 100 µg i.p.); assay: LPS septic shock model; assay type: in vivo, mouse; settings: for ID50 IL-6 / inhibitory dose [ID50] TNF: i.p. 10 min before LPS 100 ug i.p., blood 2 h later
Procedure: Mice were euthanized 2 h later using pentobarbital where blood was collected and assayed for IL6 and TNF cytokine levels. […] In a separate experiment, a brief pharmacokinetic study was performed where PDE4 inhibitors (1 mg/kg, i.p.) were given to mice 18 h before LPS administration (E. coli, 100 ug i.p.).
Figure 6 PDE4 inhibitors lessen cytokine storm induced by LPS septic shock. C57/BL6 mice were administered i.p. nothing (CON), vehicle, 10 ug/kg, 100 ug/kg, 1 mg/kg or 10 mg/kg of compounds 6, 7 or 9. Mice were given LPS (E. coli, 100 µg) 10 min later through an i.p. injection. 2 h later mice were euthanized using pentobarbital and blood was collected for IL-6 and TNF measurements. Shown in panel A–B is the % inhibition of cytokine levels as a function of drug dose. The data represent n = 3 mice/group at each dose. C57/BL6 mice were also pretreated with compound 5, 6, 7 or 9 at 1 mg/kg. Mice were given LPS (E. coli, 100 µg) 18 h later through an i.p. injection. 2 h later the mice were euthanized using pentobarbital and blood was collected for IL-6 and TNF measurements (C–D).
Compounds were diluted in PBS and various amounts (0.01, 0.1, 1 and 10 mg/kg) of compounds were administered to mice though an i.p. injection. 10 min later, mice were given 100 µg of LPS (E. coli) through an i.p. injection. 2 h later, mice were euthanized. Plasma was collected and processed for cytokine assays.

[7] = biological target: T1, PDE5 (Homo sapiens, UniProt O76074); assay: PDE-Glo phosphodiesterase activity assay, PDE5; assay type: biochemical; settings: 25 mU purified enzyme per reaction
T1 construct: purchased Millipore
Procedure: as §3, §4

[8] = biological target: T2, PDE10 (Homo sapiens, UniProt Q9Y233); assay: PDE-Glo phosphodiesterase activity assay, PDE10; assay type: biochemical; settings: 25 mU purified enzyme per reaction
T2 construct: purchased Millipore
T2 sequence (Q9Y233 whole entry): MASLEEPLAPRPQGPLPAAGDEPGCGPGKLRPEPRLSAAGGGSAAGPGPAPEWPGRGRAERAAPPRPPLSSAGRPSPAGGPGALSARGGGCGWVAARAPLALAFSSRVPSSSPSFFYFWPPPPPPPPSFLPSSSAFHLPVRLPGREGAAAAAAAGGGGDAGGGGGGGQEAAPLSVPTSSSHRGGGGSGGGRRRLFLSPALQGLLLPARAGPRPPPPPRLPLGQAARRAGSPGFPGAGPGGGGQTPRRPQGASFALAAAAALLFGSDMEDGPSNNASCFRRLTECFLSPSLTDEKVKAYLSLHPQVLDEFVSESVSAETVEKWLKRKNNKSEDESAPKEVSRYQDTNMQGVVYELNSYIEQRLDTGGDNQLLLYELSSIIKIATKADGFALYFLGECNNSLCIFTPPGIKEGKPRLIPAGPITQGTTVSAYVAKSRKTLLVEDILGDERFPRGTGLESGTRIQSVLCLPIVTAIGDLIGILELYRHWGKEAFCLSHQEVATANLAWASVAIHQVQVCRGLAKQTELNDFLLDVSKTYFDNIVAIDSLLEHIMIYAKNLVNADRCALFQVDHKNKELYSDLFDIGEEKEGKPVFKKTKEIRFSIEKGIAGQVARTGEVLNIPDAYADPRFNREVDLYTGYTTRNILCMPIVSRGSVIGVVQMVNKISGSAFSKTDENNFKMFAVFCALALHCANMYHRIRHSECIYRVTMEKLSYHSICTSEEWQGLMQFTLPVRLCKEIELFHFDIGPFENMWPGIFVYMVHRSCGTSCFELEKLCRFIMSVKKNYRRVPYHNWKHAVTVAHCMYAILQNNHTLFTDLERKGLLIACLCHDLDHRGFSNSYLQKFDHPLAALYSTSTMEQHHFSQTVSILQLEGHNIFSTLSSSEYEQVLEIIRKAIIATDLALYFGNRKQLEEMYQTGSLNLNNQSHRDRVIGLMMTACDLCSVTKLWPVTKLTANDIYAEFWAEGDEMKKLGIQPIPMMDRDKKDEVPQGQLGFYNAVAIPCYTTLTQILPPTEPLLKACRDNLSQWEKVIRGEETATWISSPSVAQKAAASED
Procedure: as §3, §4

[9] = test system: C57/BL6 mice challenged with H1N1 (A/PR/8/34); assay: H1N1 pneumonia model; assay type: in vivo, mouse; settings: 30 µg/ml in drinking water, estimated dose 5 mg/kg/d; for survival of mice infected with H1N1: versus diluent
[10] = biological target: PDE3; assay: PDE-Glo phosphodiesterase activity assay, PDE3; assay type: biochemical; settings: 25 mU purified enzyme per reaction
Procedure: as §3, §4

[11] = test system: LPS stimulated RAW264.7 and PBMC cells; assay: TNF secretion in LPS stimulated cells, RAW264.7 and PBMC; assay type: cell-based, mouse; human; settings: Mus musculus
Procedure: Compound 6, 7, 9 and 13 were also tested in LPS stimulated RAW264.7 (Fig. 4A) and PBMC (Fig. 4B) cells to evaluate their ability to suppress TNF secretion. […] PDE4. […] TNF ranging from 25–75 nM (Fig. 4C).
as §1, §2

[12] = biological target: PDE7; assay: PDE-Glo phosphodiesterase activity assay, PDE7; assay type: biochemical; settings: 25 mU purified enzyme per reaction
Procedure: as §3, §4

[13] = RAW264.7, range over both cell types (and over the compounds named)

Compound | pIC50 [1] | severity of tissue injury [2] | overt signs of distress in treated animals [2] | pIC50 [3] | pIC50 [4] | pIC50 [5] | times weaker in activity toward PDE4 compared with compound 6 ([5]; in vitro) | ID50 IL-6 [6] | inhibitory dose [ID50] TNF [6] | pIC50 [7] | pIC50 [8] | lavage cell counts, protein concentrations, and lavage cytokine IL-6 and TNF [9] | serum cytokines from H1N1-induced systematic inflammation [9] | signs of tissue injury (H&E, lung) [9] | survival of mice infected with H1N1 [9] | pIC50 [10] | pIC50 ([11]; RAW264.7, range over both cell types) | pIC50 [12] | pIC50 [11, 13] | serum TNF and IL-6 after 18 h lead time ([6]; 1 mg/kg i.p. 18 h before LPS 100 ug i.p.)
COc1ccc([C@@H]2CC(=O)c3c(O)cc(O)cc3O2)cc1O [Hesperetin] | 4.00 to 5.00 |  |  |  |  |  |  |  |  |  |  |  |  |  |  |  |  |  |  | 
COc1ccc([C@@H]2OC[C@H]3[C@@H]2CO[C@@H]3c2ccc(O[C@@H]3O[C@H](CO)[C@@H](O)[C@H](O)[C@H]3O)c(OC)c2)cc1OC [Compound 7, Forsythin] |  | lessen severity of tissue injury | none of the animals treated with the agents exhibited overt signs of distress | 5.10 | 5.00 | 5.10 | > 80 times | 0.1∼1 mg/kg | 0.01∼1 mg/kg | < 4.00 | < 4.00 | decreased | significantly reduced | able to lessen signs of tissue injury | significantly improved the survival | < 4.00 | 5.00 to 5.10 | < 4.00 |  | 
COc1ccc(N2C(=O)C3N=NN(CC(=O)Nc4cc(C)cc(C)c4)C3C2=O)cc1OC (stereo not drawn) [Compound 13] |  | lessen severity of tissue injury | none of the animals treated with the agents exhibited overt signs of distress | 7.15 | 7.60 | 8.00 |  |  |  | 4.05 | < 4.00 | decreased | significantly reduced | able to lessen signs of tissue injury | significantly improved the survival | < 4.00 |  | < 4.00 | 6.40 to 7.60 | 
COc1ccc(C2OCC3(O)C(c4ccc(OC)c(OC)c4)OCC23)cc1OC (stereo not drawn) [Compound 6] |  | lessen severity of tissue injury | none of the animals treated with the agents exhibited overt signs of distress | 6.40 | 7.05 | 7.05 |  | 0.1∼1 mg/kg | 0.01∼1 mg/kg | 4.10 | < 4.00 | decreased | significantly reduced | able to lessen signs of tissue injury | significantly improved the survival | < 4.00 |  | < 4.00 | 6.40 to 7.60 | 
COc1cc(O)c2c(=O)c(-c3ccc(O)cc3)coc2c1 [prunetin] | 4.00 to 5.00 |  |  |  |  |  |  |  |  |  |  |  |  |  |  |  |  |  |  | 
COc1cccc(CN2N=NC3C(=O)N(c4ccc(OC)c(OC)c4)C(=O)C32)c1 (stereo not drawn) [Compound 9] |  | lessen severity of tissue injury | none of the animals treated with the agents exhibited overt signs of distress | 7.00 | 7.10 | 7.22 |  | 0.1∼1 mg/kg | 0.01∼1 mg/kg | < 4.00 | < 4.00 | decreased | significantly reduced | able to lessen signs of tissue injury | significantly improved the survival | < 4.00 |  | < 4.00 | 6.40 to 7.60 | excellent efficacy reducing both serum TNF and IL-6 cytokines
